Experimental data taken from patent US11524962B2, “Substituted pyrrolo[2,3-d]pyrimidines as inhibitors of protein arginine methyl transferase 5 (PRMT5)” (PRELUDE THERAPEUTICS, INCORPORATED, priority 2017, dated 2022).

Legend:
[1] = molecular target: T1, PRMT5/MEP50 complex (Homo sapiens (Human), UniProt O14744); experiment: HotSpot Assay; assay type: biochemical
Protocol: HotSpot Assay. Compounds were solubilized and 3-fold diluted in 100% DMSO. […] Standard reactions were performed in a total volume of 50 μl in assay buffer, with histone H2A (5 μM final) as substrate. To this was added the PRMT5/MEP50 complex diluted to provide a final assay concentration of 5 nM and the compounds were allowed to preincubate for 15 to 20 minutes at room temperature. The reaction was initiated by adding S-[3H-methyl]-adenosyl-L-methionine (PerkinElmer) to final concentration of 1 μM. Following a 60 minutes incubation at 30° C., the reaction was stopped by adding 100 μL of 20% TCA. Each reaction was spotted onto filter plate (MultiScreen FB Filter Plate, Millipore), and washed 5 times with PBS buffer, Scintillation fluid was added to the filter plate and read in a scintillation counter. IC50 values were determined by fitting the data to the standard 4 parameters with Hill Slope using GraphPad Prism software. This procedure generated the HotSpot data in Table 7.

[2] = test system: Symmetric Di-Methyl Arginine (sDMA) marks in U-87 MG cells; experiment: sDMA Western blot / In Cell Western in U-87 MG cells; assay type: cell-based; details: Homo sapiens, 72 h, 3 days, read-out: sDMA_U87 IC50
Protocol: (§1) Compound titration and cell culture: Compounds were dissolved in DMSO to make 10 mM stock and 3-fold series dilutions were further conducted to make working stocks top at 1 mM. Granta-519 cells were maintained in PRMI 1640 (Corning Cellgro, Catalog #: 10-040-CV) supplemented with 10% v/v FBS (GE Healthcare, Catalog #: SH30910.03) and U-87 MG cells were maintained in DMEM (Corning Cellgro, Catalog #: 10-013-CV) with 10% FBS and 2 mM Glutamin (Corning Cellgro, Catalog #25005CV).
(§2) To determine enzyme inhibition IC50 values in Granta-519 and U-87 MG cells using Western Blot analysis. One day before experiment, Granta-519 cells were passaged to a density of 0.5×10^6 cells/ml. U-87 MG cells were trypsinized and 4×10^5 cells were seeded into 6-well plates and allow to grow overnight. The next day, Granta-519 cells were spun down at 1,500 rpm for 4 min, resuspend in fresh medium at 0.5×10^6 cells/ml and 3 mL of culture (1.5×10^6 cells) were seeded into 6 well plate. Eight-point, 3-fold serial dilutions of compound working stocks were added to cells (3 ul, 1:1,000 dilution, DMSO concentration was 0.1%; final top concentration at 1 uM) and incubated for 3 days. Cells incubated with DMSO was used as a vehicle control.
(§3) Cells were harvested 3 days later, resuspended in 15 uL PBS, lysed in 4% SDS, and homogenized by passing through homogenizer column (Omega Biotek, Catalog #: HCR003). Total protein concentrations were determined by BCA assay (ThermoFisher Scientific, Catalog #: 23225). Lysates were mixed with 5× Laemmli buffer and boiled for 5 min. Forty ug of total protein was separated on SDS-PAGE gels (Bio-Rad, catalog #: 4568083, 4568043), transferred to PVDF membrane, blocked with 5% dry milk (Bio-Rad, Catalog #: 1706404) in TBS with 0.1% v/v Tween 20 (TBST) for 1 hour at room temperature (RT), and incubated with primary antibodies (sDMA: Cell signaling, Catalog #: 13222, 1:3,000; β-Actin: sigma, Catalog #: 1:5,000) in 5% dry milk in TBST at 4° C. overnight. The next day, membranes were washed with TBST, 5×5 min, and incubated with HRP conjugated seconded antibody (GE Healthcare; Catalog #: NA934-1ML, NA931-1ML; 1:5,000) for 2 hours at RT, followed by 5×5 min washes with TBST, and incubation with ECL substrates (Bio-Rad, Catalog #: 1705061, 1705062). Chemiluminescent signal was captured with Fluochem HD2 imager (Proteinsimple). SmD3me2s bands were quantified by ImageJ. Signals were normalized to β-Actin and DMSO control. IC50 values were calculated using Graphpad Prism ([Inhibitor]vs. normalized response−Variable slope).
U87-MG cells were trypsinized one day before the experiment, seeded into a 384-well plate at 2500 cells/well using a Multidrop Combi Dispenser (ThermoFisher) and allowed to grow overnight. The next day (day 0), a series of 9-point, 3-fold serial dilutions of compounds were prepared and dispensed into wells from a 1 mM stock solution using a TECAN digital dispenser (D300e) and the DMSO % concentration was normalized to 0.1%. Three days later, media was removed, and cells were processed as described above.
To determine IC50 values, the ratio for each well was calculated (sDMA 800 nm value/DRAQ5 700 nm value). Each plate included 28 negative control wells (DMSO only, minimum inhibition) and 18 positive control wells for maximum inhibition (treated with 3 uM of a reference compounds, background wells). The average ratios of minimum and maximum inhibition controls were calculated and used to determine the percentage of sDMA, relative to DMSO, for each well in the plate.
These procedures generated the sDMA data in Table 7.

[3] = test system: U-87 MG cells; experiment: Cell proliferation assay in U-87 MG cells; assay type: cell-based; details: Homo sapiens, 240 h, day 10, read-out: Prolif_U87 IC50
Protocol: One day before experiment, Granta-519 cells were passaged to a density of 0.5×10^6 cells/ml. U-87 MG cells were trypsinized and 2,000 cells were seeded into 96-well plates and allow to grow overnight. On the day of experiment (day 0), Granta-519 Cells were spun down at 1,500 rpm for 4 min, resuspended in fresh medium to 0.5×10^6 cells/ml and 190 ul of cells were added to 96 well plates. For U-87 MG cells, old medium was removed and replaced with 190 uL fresh medium. Compound working stocks were first diluted at 1:50 with fresh medium in 96 well plate and 10 μL of diluted drugs were added to 96 well plates containing cells and incubated for 3 days. DMSO was used a vehicle control.
One day 3, 50 uL of Granta-519 cells were transferred to a new 96-well plate and 140 uL fresh medium was added. For U-87 MG cells, old medium was removed and replaced with 190 uL fresh medium. Compound working stocks were freshly diluted at 1:50 with medium and 10 μL of diluted drugs were added to cells and grow for 3 additional days. The same process was repeated on day 6. Cells were allowed to grow for additional 4 days.
On day 10, 100 uL Granta-519 cells were transferred to a new 96 well plate and 10 μL of Cell Counting Kit-8 (CCK-8, Jojindo, CK04-13) solution was added. For U-87 MG cells, old medium was removed and replaced with 100 uL fresh medium and 10 uL CCK-8 solution was added. Plates were incubated in CO2 incubator for 2 hours (Granta-519 cells) or 30 min (U-87 MG cells) and OD450 values were measured with a microplate reader (iMark microplate reader, Bio-Rad). Percentage of viable cells, relative to DMSO vehicle control, were calculated and plotted in Graphpad Prism ([Inhibitor]vs. normalized response−Variable slope) to determine proliferation IC50 values on day 10.
These cell proliferation procedures produced the data in Table 7.

[4] = molecular target: T1, PRMT5/MEP50 complex; experiment: Flash plate assay; assay type: biochemical; details: read-out: Flash Plate IC50
Protocol: Flash plate assay. Compounds were solubilized, and 3-fold diluted in 100% DMSO. […] Standard reactions were performed in a total volume of 30 μl in assay buffer, with 300 nM histone H4 based AcH4-23 (Anaspec: AS-65002) as substrate. To this was added the PRMT5/MEP50 complex diluted to provide a final assay concentration of 2.5 nM and the compounds were allowed to preincubate for 20 minutes at 37° C. The reaction was initiated by adding S-[3H-methyl]-adenosyl-L-methionine (PerkinElmer: NET155001MC) to final concentration of 1 μM. Following a 30 minutes incubation at 37° C., the reaction was stopped by adding 25 μL of 8M Guanidine HCl. Prepare streptavidin YSI SPA beads (Perkinelmer: RPNQ0012) at 0.3 mg/mL in assay buffer. To each reaction, add 150 μL of SPA beads suspension, and incubated while shaking at room temperature for 30 minutes. The plate was centrifuged at 100×g for 30 second before reading in a scintillation counter. IC50 values were determined by fitting the data to the standard 4 parameters with Hill Slope using GraphPad Prism software. This procedure produced the Flash Plate data in Table 7.

[5] = test system: Symmetric Di-Methyl Arginine (sDMA) marks in Granta-519 cells; experiment: sDMA Western blot / In Cell Western in Granta-519 cells; assay type: cell-based; details: Homo sapiens, 72 h; Granta-519, 3 days; read-out: sDMA_Granta IC50
Protocol: as §1, §2, §3
sDMA In Cell Western procedure (ICW): Granta-519 cells were passaged to a density of 0.5×10^6 cells/ml one day before experiments and allowed to grow overnight. The next day (day 0), cells were spun down at 1,500 rpm for 4 min, resuspended in fresh medium to 0.2×10^6 cells/ml and 100 uL of cells were added to 384-well plates using a Multidrop Combi Dispenser (ThermoFisher). A series of 9-point, 3-fold serial dilutions of compounds were prepared and dispensed into wells from a 1 mM stock solution using a TECAN digital dispenser (D300e) and the DMSO % concentration was normalized in each well to 0.1%. DMSO and 3 uM of reference compounds were used as negative (minimum inhibition) and positive (maximum inhibition) controls, respectively. After 3 days of incubation, cells were first resuspended and then 80 ul of cells were transferred to a Poly-D-lysine 384-well plate (Corning, Catalog #354663), followed by 30 minutes incubation at room temperature (RT) and 5 additional hours of incubation at 37° C. […]

T1 sequence (O14744 whole entry): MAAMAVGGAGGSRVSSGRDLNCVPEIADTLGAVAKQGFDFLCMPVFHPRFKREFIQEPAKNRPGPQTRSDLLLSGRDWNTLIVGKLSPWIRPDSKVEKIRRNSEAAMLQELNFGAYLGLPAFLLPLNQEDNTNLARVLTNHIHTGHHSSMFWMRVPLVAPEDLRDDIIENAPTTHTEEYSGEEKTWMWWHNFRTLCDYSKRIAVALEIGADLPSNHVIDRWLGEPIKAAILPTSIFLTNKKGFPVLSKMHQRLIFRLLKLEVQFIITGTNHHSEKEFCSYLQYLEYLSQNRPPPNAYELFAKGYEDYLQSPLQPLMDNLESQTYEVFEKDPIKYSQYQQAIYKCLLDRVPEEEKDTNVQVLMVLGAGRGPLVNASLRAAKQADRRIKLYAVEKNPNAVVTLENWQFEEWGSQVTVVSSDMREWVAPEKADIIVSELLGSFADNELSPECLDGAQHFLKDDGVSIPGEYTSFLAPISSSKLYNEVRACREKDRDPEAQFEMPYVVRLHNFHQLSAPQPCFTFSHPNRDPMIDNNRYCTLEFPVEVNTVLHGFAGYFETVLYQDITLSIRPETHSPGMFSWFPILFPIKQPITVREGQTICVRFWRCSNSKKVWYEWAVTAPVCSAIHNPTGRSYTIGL
T1 sequence (Q9BQA1 whole entry partner): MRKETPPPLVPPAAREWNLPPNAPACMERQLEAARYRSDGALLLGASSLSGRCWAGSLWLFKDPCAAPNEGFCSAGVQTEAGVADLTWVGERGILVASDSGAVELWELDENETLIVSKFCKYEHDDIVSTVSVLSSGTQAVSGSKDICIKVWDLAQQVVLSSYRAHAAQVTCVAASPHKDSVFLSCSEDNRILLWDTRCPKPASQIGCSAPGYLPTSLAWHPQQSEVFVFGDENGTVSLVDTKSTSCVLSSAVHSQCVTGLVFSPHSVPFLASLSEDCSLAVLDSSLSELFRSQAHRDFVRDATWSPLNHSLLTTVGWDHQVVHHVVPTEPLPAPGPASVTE

Row | SMILES | IC50 [1] | IC50 [2] | IC50 [3] | IC50 [4] | IC50 [5]
1 | Nc1ncnc2c1ccn2[C@@H]1O[C@H]([C@H](O)c2ccc3c(c2)CCC3)[C@@H](O)[C@H]1O [Example 45, (2R,3R,4S,5R)-2-(4-amino-7H-pyrrolo[2,3-d]pyrimidin-7-yl)-5-((R)-(2,3-dihydro-1H-inden-5-yl)(hydroxy)methyl)tetrahydrofuran-3,4-diol] | – | 54 nM | 547 nM | 6.6 nM | –
2 | COCCc1ncnc2c1ccn2[C@@H]1O[C@H]([C@H](O)c2ccc3c(c2)CC3)[C@@H](O)[C@H]1O [Example 48, (2R,3S,4R,5R)-2-((R)-bicyclo[4.2.0]octa-1(6),2,4-trien-3-yl(hydroxy)methyl)-5-(4-(2-methoxyethyl)-7H-pyrrolo[2,3-d]pyrimidin-7-yl)tetrahydrofuran-3,4-diol] | – | 758 nM | 10000 nM | 74 nM | 337 nM
3 | O[C@@H]1[C@H](O)[C@@H]([C@H](O)c2ccc3c(c2)CC3)O[C@H]1n1ccc2c(CF)ncnc21 [Example 49, (2R,3S,4R,5R)-2-((R)-bicyclo[4.2.0]octa-1(6),2,4-trien-3-yl(hydroxy)methyl)-5-(4-(fluoromethyl)-7H-pyrrolo[2,3-d]pyrimidin-7-yl)tetrahydrofuran-3,4-diol] | – | 625 nM | 10000 nM | 78 nM | 375 nM

The remaining compounds from weak to strong by IC50 [4], led by results:

Row | IC50 [1] | IC50 [2] | IC50 [3] | IC50 [4] | IC50 [5] | SMILES
4 | 5 nM | 110 nM | 388 nM | 24.3 nM | – | Cc1ncnc2c1ccn2[C@@H]1O[C@H]([C@](C)(O)c2ccc3c(c2)CC3)[C@@H](O)[C@H]1O [Example 9, (2S,3S,4R,5R)-2-((R)-1-(bicyclo[4.2.0]octa-1(6),2,4-trien-3-yl)-1-hydroxyethyl)-5-(4-methyl-7H-pyrrolo[2,3-d]pyrimidin-7-yl)tetrahydrofuran-3,4-diol]
5 | – | 113 nM | 1160 nM | 23.7 nM | – | Cc1ncnc2c1ccn2[C@@H]1O[C@H]([C@H](O)c2ccc3c(c2)CCC3)[C@@H](O)[C@H]1O [Example 44, (2R,3S,4R,5R)-2-((R)-(2,3-dihydro-1H-inden-5-yl)(hydroxy)methyl)-5-(4-methyl-7H-pyrrolo[2,3-d]pyrimidin-7-yl)tetrahydrofuran-3,4-diol]
6 | 6 nM | – | – | 4.4 nM | 203 nM | Nc1ncnc2c1ccn2[C@@H]1O[C@H]([C@H](O)c2ccc3c(c2)OCC3)[C@@H](O)[C@H]1O [Example 14, (2R,3R,4S,5R)-2-(4-amino-7H-pyrrolo[2,3-d]pyrimidin-7-yl)-5-((R)-(2,3-dihydrobenzofuran-6-yl)(hydroxy)methyl)tetrahydrofuran-3,4-diol]
